From patent US20220401514A1, “ANTIMICROBIAL, BACTERIOPHAGE-DERIVED POLYPEPTIDES AND THEIR USE AGAINST GRAM-NEGATIVE AND ACID-FAST BACTERIA” (CONTRAFECT CORPORATION, priority 2019, published 2022)
In brackets after ≈: the same amount, converted by molar mass. Read-outs that look alike come from different tables or passages of the source.

Legend:
[1] = test system: P. aeruginosa (CFS 1292); experiment: microbe, parasite or virus in culture; format: cell-based, Pseudomonas aeruginosa; settings: Pseudomonas aeruginosa
[2] = test system: M. smegmatis; experiment: 45 hr MIC against M. smegmatis (NTM), Mueller Hinton broth; format: cell-based, Mycobacterium smegmatis
[3] = test system: Klebsiella pneumoniae; experiment: microbe, parasite or virus in culture; format: cell-based
[4] = test system: Acinetobacter baumannii strain 30; experiment: Checkerboard assay (FICI) with antibiotics, A. baumannii; format: cell-based; settings: checkerboard
Procedure: Checkerboard assays. […] Checkerboards were constructed by first preparing columns of a 96-well polypropylene microtiter plate, in which each well had the same amount of antibiotic diluted 2-fold along the horizontal axis. […] Summation fractional inhibitory concentration index (FICIs) were calculated for each drug and the minimum FICI was used to determine synergy. FICIs were calculated as follows: FICI=FIC A+FIC B, where FIC A is the MIC of each antibiotic in the combination/MIC of the each antibiotic alone, and FIC B is the MIC of each Chp peptide in the combination/MIC of each Chp peptide alone. The combination is considered synergistic when the FICI is ≤0.5, strongly additive when the FICI is >0.5 to <1, additive with the FICI is 1-<2, and antagonistic when the FICI is ≥2.
The results are shown below in Tables 22-27.

[5] = test system: P. aeruginosa strain CFS 1292; format: cell-based, Pseudomonas aeruginosa; settings: serial passage
[6] = test system: S. maltophilia; experiment: MIC against S. maltophilia isolates; format: cell-based, Stenotrophomonas maltophilia; settings: for MIC50 / MIC100 / MIC Range: S. maltophilia isolates (n per peptide in table)
Outline: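 Chp peptides were tested on a set of S. maltophilia isolates (n = isolates per species), with minimal inhibitory concentrations given in μg/mL.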

[7] = test system: carbapenem-resistant P. aeruginosa clinical isolate CFS-1292; experiment: MIC by modified CLSI broth microdilution against P. aeruginosa CFS-1292 (CAA, CAA + human serum); format: cell-based, Pseudomonas aeruginosa; settings: for MIC (μg/mL) against CFS-1292 in 100% CAA (1st run/2nd run): 1st run or single value
[8] = test system: P. aeruginosa strain CFS-1292; experiment: MIC at pH 6, pH 7 and pH 8; format: cell-based, Pseudomonas aeruginosa
Procedure: The Chp peptides were further evaluated at varying pH levels. The MIC values were determined at pH 6, pH 7, and pH 8 for 18 different Chp peptides against P. aeruginosa strain CFS-1292. […]

[9] = Stability assessment in 100% CAA; format: in vitro ADME; set-up: unit not given beside the values
Procedure: Stability was assessed after incubation in 100% human serum at 37° C. after 10 minutes, 1 hour, and 2 hours.
Stability assessment was further conducted in 100% CAA and rabbit serum using the same methodology discussed above.

[10] = test system: P. aeruginosa strain CFS-1292; experiment: MIC in presence of divalent cations (calcium chloride, magnesium sulfate); format: cell-based, Pseudomonas aeruginosa
Procedure: Next, Chp peptides were evaluated in the presence of different divalent cations. […]; (2) in the presence of 2 mM calcium chloride alone; (3) in the presence of 1 mM magnesium sulfate alone; and (4) in the presence of both 2 mM calcium chloride and 1 mM magnesium sulfate. […]

[11] = test system: P. aeruginosa strain CFS-1292; experiment: MIC in presence and absence of NaCl (140 mM); format: cell-based, Pseudomonas aeruginosa; settings: for Fold change in MIC: CAA + 140 mM NaCl versus CAA without added NaCl; for MIC, CAA + 140 mM NaCl / MIC, CAA (no added NaCl): P. aeruginosa CFS-1292
Procedure: Certain Chp peptides were evaluated over a range of physiological NaCl levels and pH values, and were further evaluated for activity in the presence of various divalent cations.

[12] = test system: P. aeruginosa strain PAO1; experiment: MIC against PAO1 in Mueller-Hinton broth with 50% human plasma or human serum; format: cell-based, Pseudomonas aeruginosa
[13] = Klebsiella pneumoniae (ATCC 10031, MIC control strain), RSC 814, CAA without human serum
[14] = Klebsiella pneumoniae (g2-3 HM35K), RSC 1138, CAA without human serum
[15] = Klebsiella sp. (HM-44; colon, Crohn's disease), RSC 1139, CAA without human serum
[16] = Klebsiella spp. (HM-223; gut of Crohn's disease patient), RSC 1131, CAA without human serum

| Molecule | MIC50 [6] | MIC100 [6] | MIC Range [6] | MIC (μg/mL) against CFS-1292 in 100% CAA (1st run/2nd run) [7] | MIC ([8]; CAA media (pH 7)) | MIC ([8]; pH 6) | MIC ([8]; pH 7) | MIC ([8]; pH 8) | MIC (100% CAA) [9] | 45 hr MIC ([2]; M. smegmatis MC^2 155, Run #1) | 45 hr MIC ([2]; M. smegmatis MC^2 155, Run #2) | MIC [3, 13] | MIC [3, 14] | MIC [3, 15] | MIC [3, 16] | MIC ([10]; CAA media + 1 mM MgSO4) | MIC ([10]; CAA media + 2 mM CaCl2) | MIC ([10]; CAA media + + 1 mM MgSO4) | MIC ([10]; CAA media alone) | Fold change in MIC [11] | further results |
| --- | --- | --- | --- | --- | --- | --- | --- | --- | --- | --- | --- | --- | --- | --- | --- | --- | --- | --- | --- | --- | --- |
| NC[C@H]1O[C@H](O[C@H]2[C@H](O)[C@@H](O[C@H]3O[C@H](CO)[C@@H](O)[C@H](N)[C@H]3O)[C@H](N)C[C@@H]2N)[C@H](N)C[C@@H]1O [tobramycin, reference compound] | – | – | – | – | – | – | – | – | – | – | – | – | – | – | – | – | – | – | – | – | MIC ([1]; read-out: MIC Center): 0.5 µg/mL (≈ 1.07 µM); MIC ([1]; read-out: MIC Periphery): 0.5 µg/mL (≈ 1.07 µM); MIC ([2]; Mycolicibacterium smegmatis, MC^2155, 45 h, read-out: 45 hr MIC, M. smegmatis MC^2 155, Run #2): 0.125 µg/mL (≈ 0.267 µM); MIC ([3]; Klebsiella pneumoniae, ATCC700603, K. pneumoniae (ATCC 700603), control agents of Table 8, read-out: MIC (in brackets beside MBEC)): < 0.5 µg/mL; MIC ([3]; Klebsiella pneumoniae, read-out: MIC (in brackets beside MBEC)): < 0.5 µg/mL; Antibiotic FIC ([4]; in combination with Chp2): 0.125; Antibiotic MIC ([4]; in combination with Chp2): 0.01562 µg/mL; Antibiotic FIC ([4]; in combination with Chp2-M1): 0.25; Antibiotic MIC ([4]; in combination with Chp2-M1): 0.01562 µg/mL; Antibiotic FIC ([4]; in combination with Chp4-M1): 0.5; Antibiotic FIC ([4]; in combination with Chp6-M1): 0.25; Antibiotic MIC ([4]; in combination with Chp6-M1): 0.01562 µg/mL; Antibiotic FIC ([4]; in combination with Chp10-M1): 0.25; Antibiotic MIC ([4]; in combination with Chp10-M1): 0.01562 µg/mL; Antibiotic FIC ([4]; in combination with Unp2-M1): 0.25; Antibiotic MIC ([4]; in combination with Unp2-M1): 0.01562 µg/mL; change in MIC after 21 days [5]: significant increases |
| MARRRYRLPRRRSRRLFSRTALRMHPRNRLRRIMRGGIRF [Chp6] | 0.5 µg/mL | 1 µg/mL | 0.25 to 1 µg/mL | 0.5 µg/mL | 1 µg/mL | 2 µg/mL | 0.25 µg/mL | 1 µg/mL | 0.25 | 4 µg/mL | 4 µg/mL | 4 µg/mL | 4 µg/mL | 1 µg/mL | 4 µg/mL | 1 µg/mL | 0.5 µg/mL | 1 µg/mL | 1 µg/mL | 1 | activity against S. maltophilia ([6]; Table 45 isolates): active; MIC, CAA + 140 mM NaCl [11]: 0.5 µg/mL; MIC, CAA (no added NaCl) [11]: 0.5 µg/mL |
| MARRYRLSRRRSRRLFSRTALRMHRRNRLRRIMRGGIRF [Chp4] | 0.5 µg/mL | 2 µg/mL | 0.5 to 8 µg/mL | 0.5 µg/mL | 0.5 µg/mL | 0.25 µg/mL | 0.5 µg/mL | 1 µg/mL | 0.25 | 4 µg/mL | 4 µg/mL | 4 µg/mL | 4 µg/mL | 4 µg/mL | 4 µg/mL | 0.5 µg/mL | 1 µg/mL | 0.125 µg/mL | 0.5 µg/mL | 1 | MIC (μg/mL) against CFS-1292 in CAA + […] human serum [7]: 0.5 µg/mL; MIC [12]: 2 µg/mL; Minimal inhibitory concentration, Human Serum [12]: 2 µg/mL; MIC, CAA + 140 mM NaCl [11]: 0.5 µg/mL; MIC, CAA (no added NaCl) [11]: 0.5 µg/mL |
| MVRRRRLRRRISRRIFRRTVARVGRRRRSFRGGIRF [Chp1] | 2 µg/mL | 4 µg/mL | 1 to 8 µg/mL | 1 µg/mL | 1 µg/mL | 0.5 µg/mL | 1 µg/mL | 1 µg/mL | 0.5 | 8 µg/mL | 16 µg/mL | 16 µg/mL | 16 µg/mL | 8 µg/mL | 8 µg/mL | 1 µg/mL | 2 µg/mL | 1 µg/mL | 1 µg/mL | 1 | MIC (μg/mL) against CFS-1292 in CAA + […] human serum [7]: 1 µg/mL; MIC, CAA + 140 mM NaCl [11]: 1 µg/mL; MIC, CAA (no added NaCl) [11]: 1 µg/mL |
